Source: patent US8691815B2, “Substituted oxindole derivatives, drugs containing said derivatives and the use thereof” (AbbVie Deutschland GmbH & Co. KG, priority 2005, dated 2014)
Structures can show the parent of a compound that is named as a salt.

What follows are compounds tested against T1, human vasopressin V1b receptor (Homo sapiens, UniProt P47901) (assay: Vasopressin V1b receptor binding assay). Conditions: membranes from CHO-K1 cells with stably expressed human V1b receptors, displacement of 1.5 nM 3H-AVP.
T1 construct: expressed in transfected cells; host or cells: CHO-K1 (cell line hV1b-3H2_CHO), membrane preparation
T1 sequence (P47901 1-424): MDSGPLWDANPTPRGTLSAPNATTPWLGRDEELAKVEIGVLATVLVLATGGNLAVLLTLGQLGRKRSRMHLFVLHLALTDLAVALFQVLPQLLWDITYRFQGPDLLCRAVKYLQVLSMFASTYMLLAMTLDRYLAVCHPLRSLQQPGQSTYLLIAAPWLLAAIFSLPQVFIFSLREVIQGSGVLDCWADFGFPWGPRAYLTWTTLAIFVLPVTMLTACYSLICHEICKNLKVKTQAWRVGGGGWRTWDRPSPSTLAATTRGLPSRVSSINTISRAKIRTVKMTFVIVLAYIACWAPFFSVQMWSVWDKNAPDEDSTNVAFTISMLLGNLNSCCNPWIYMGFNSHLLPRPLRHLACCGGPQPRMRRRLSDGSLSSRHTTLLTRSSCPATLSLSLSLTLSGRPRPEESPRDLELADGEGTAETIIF
Description: Vasopressin V1b Receptor Binding Assay:
The test substances were dissolved in a concentration of 10^−2 M in DMSO (dimethyl sulfoxide) and further diluted to 5×10^−4 M to 5×10^−9 M in DMSO. This series of DMSO predilutions was diluted 1:10 with assay buffer. The substance concentration was again diluted 1:5 in the assay mixture (2% DMSO in the mixture).
The membrane pellet was again homogenized and centrifuged as described and then taken up in 50 mM Tris-HCl, pH 7.4, homogenized and stored in aliquots frozen in liquid nitrogen at −190° C.
The incubation buffer was: 50 mM Tris, 10 mM MgCl2, 0.1% BSA, pH 7.4.
The nonspecific binding was determined with 1 uM AVP (Bachem # H1780). All determinations were carried out as triplicate determinations. After incubation (60 minutes at room temperature), the free radioligand was removed by vacuum filtration (Skatron cell harvester 7000) through Whatman GF/B glass fiber filter mats, and the filters were transferred into scintillation vials. The liquid scintillation measurement took place in a Tricarb model 2000 or 2200CA instrument (Packard). Conversion of the measured cpm into dpm was carried out with the aid of a standard quench series.
The binding parameters were calculated by nonlinear regression in SAS.
`COc1ccc(S(=O)(=O)N2C(=O)C(c3ccc(CN4CCCCC4)cc3OC)(N3CCC[C@H]3C(=O)N(C)C)c3cc(Cl)ccc32)c(OC)c1` (single isomer, unassigned) [Example 8] showed a Ki of 1 to 10 nM. `COc1ccc(S(=O)(=O)N2C(=O)C(c3ccc(CN4CCOCC4)cc3OC)(N3CCC[C@H]3C(=O)N(C)C)c3cc(Cl)ccc32)c(OC)c1` (single isomer, unassigned) [Example 10] showed a Ki of 10 to 100 nM. Work on `COc1ccc(S(=O)(=O)N2C(=O)C(c3cccc(CN(C)C)c3)(N3C[C@H](O)C[C@H]3C(=O)N(C)C)c3cc(Cl)ccc32)c(OC)c1` (single isomer, unassigned) [Example 16] yielded a Ki of 1 to 10 nM. With `COc1ccc(S(=O)(=O)N2C(=O)C(c3ccc(CN4CCCC4)cc3OC)(N3CCC[C@H]3C(=O)N(C)C)c3cc(Cl)ccc32)c(OC)c1` (stereo partly drawn) [Example 1, (S)-1-[5-Chloro-1-(2,4-dimethoxybenzenesulfonyl)-3-(2-methoxy-4-pyrrolidin-1-yl-methylphenyl)-2-oxo-2,3-dihydro-1H-indol-3-yl]-pyrrolidine-2-dimethylcarboxamide, trifluoroacetic acid salt] the Ki was less than 1 nM. For `COc1cc(CN2CCCC2)ccc1C1(N2CCC[C@H]2C(=O)N(C)C)C(=O)N(S(=O)(=O)c2ccc(F)cc2)c2ccc(Cl)cc21` (stereo partly drawn) [Example 3, (S)-1-[5-Chloro-1-(4-fluorobenzenesulfonyl)-3-(2-methoxy-4-pyrrolidin-1-ylmethyl-phenyl)-2-oxo-2,3-dihydro-1H-indol-3-yl]pyrrolidine-2-dimethylcarboxamide, trifluoroacetic acid salt], the Ki was 1 to 10 nM. For `COc1cc(CN2CCCC2)ccc1C1(N2CCC[C@H]2C(=O)N(C)C)C(=O)N(S(=O)(=O)c2ccc(Cl)cc2)c2ccc(Cl)cc21` (stereo partly drawn) [Example 4, (S)-1-[5-Chloro-1-(4-chlorobenzenesulfonyl)-3-(2-methoxy-4-pyrrolidin-1-ylmethyl-phenyl)-2-oxo-2,3-dihydro-1H-indol-3-yl]pyrrolidine-2-dimethylcarboxamide, trifluoroacetic acid salt], the Ki was less than 1 nM. For `COc1cc(CN2CCCC2)ccc1C1(N2CCC[C@H]2C(=O)N(C)C)C(=O)N(S(=O)(=O)c2ccc(C#N)cc2)c2ccc(Cl)cc21` (stereo partly drawn) [Example 5, (S)-1-[5-Chloro-1-(4-cyanobenzenesulfonyl)-3-(2-methoxy-4-pyrrolidin-1-ylmethyl-phenyl)-2-oxo-2,3-dihydro-1H-indol-3-yl]pyrrolidine-2-dimethylcarboxamide, trifluoroacetic acid salt], the Ki was less than 1 nM. In the case of `COc1ccc(S(=O)(=O)N2C(=O)C(c3ccc(CN4CCCC4)cc3)(N3C[C@H](O)C[C@H]3C(=O)N(C)C)c3cc(Cl)ccc32)c(OC)c1` (stereo partly drawn) [Example 6, (2S,4R)-1-[5-Chloro-1-(2,4-dimethoxybenzenesulfonyl)-2-oxo-3-(4-pyrrolidin-1-yl-methylphenyl)-2,3-dihydro-1H-indol-3-yl]-4-hydroxypyrrolidine-2-dimethylcarboxamide], the Ki is reported as 10 to 100 nM. With `COc1ccc(S(=O)(=O)N2C(=O)C(c3ccc(CN(C)C)cc3OC)(N3CCC[C@H]3C(=O)N(C)C)c3cc(Cl)ccc32)c(OC)c1` (stereo partly drawn) [Example 7, (S)-1-[5-Chloro-1-(2,4-dimethoxybenzenesulfonyl)-3-(4-dimethylaminomethyl-2-methoxyphenyl)-2-oxo-2,3-dihydro-1H-indol-3-yl]-pyrrolidin-2-dimethylcarboxamide] the Ki was 1 to 10 nM. `COc1ccc(S(=O)(=O)N2C(=O)C(c3ccc(CN4CCN(C)CC4)cc3OC)(N3CCC[C@H]3C(=O)N(C)C)c3cc(Cl)ccc32)c(OC)c1` (stereo partly drawn) [Example 9, (S)-1-{5-Chloro-1-(2,4-dimethoxybenzenesulfonyl)-3-[2-methoxy-4-(4-methyl-piperazin-1-ylmethyl)phenyl]-2-oxo-2,3-dihydro-1H-indol-3-yl}pyrrolidine-2-dimethylcarboxamide] gave a Ki of 1 to 10 nM. `COc1ccc(S(=O)(=O)N2C(=O)C(c3ccc(CN4CCN(C(C)=O)CC4)cc3OC)(N3CCC[C@H]3C(=O)N(C)C)c3cc(Cl)ccc32)c(OC)c1` (stereo partly drawn) [Example 11, (S)-1-[3-[4-(4-Acetylpiperazin-1-ylmethyl)-2-methoxyphenyl]-5-chloro-1-(2,4-dimethoxy-benzenesulfonyl)-2-oxo-2,3-dihydro-1H-indol-3-yl]pyrrolidine-2-dimethylcarboxamide] was tested, and the Ki was 10 to 100 nM. For `COc1ccc(S(=O)(=O)N2C(=O)C(c3ccc(CN(C)CCN(C)C)cc3OC)(N3CCC[C@H]3C(=O)N(C)C)c3cc(Cl)ccc32)c(OC)c1` (stereo partly drawn) [Example 12, (S)-1-[5-Chloro-1-(2,4-dimethoxybenzenesulfonyl)-3-(4-{[(2-dimethylaminoethyl)-methylamino]methyl}-2-methoxyphenyl)-2-oxo-2,3-dihydro-1H-indol-3-yl]pyrrolidine-2-dimethylcarboxamide], the Ki was 1 to 10 nM. `COc1ccc(S(=O)(=O)N2C(=O)C(c3ccc(CN4CCCC4)cc3OC)(N(C)[C@@H](C)C(=O)N(C)C)c3cc(Cl)ccc32)c(OC)c1` (stereo partly drawn) [Example 14, (S)-2-{[5-Chloro-1-(2,4-dimethoxybenzenesulfonyl)-3-(2-methoxy-4-pyrrolidin-1-yl-methylphenyl)-2-oxo-2,3-dihydro-1H-indol-3-yl]methylamino}-N,N-dimethyl-propionamide] showed a Ki of 1 to 10 nM. `COc1ccc(S(=O)(=O)N2C(=O)C(c3cc(CN(C)C)ccc3OC)(N3CCC[C@H]3C(=O)N(C)C)c3cc(Cl)ccc32)cc1` (stereo partly drawn) [Example 17, (S)-1-[5-Chloro-3-(5-dimethylaminomethyl-2-methoxyphenyl)-1-(4-methoxy-benzene-sulfonyl)-2-oxo-2,3-dihydro-1H-indol-3-yl]pyrrolidine-2-dimethylcarboxamide, trifluoroacetic acid salt] gave a Ki of less than 1 nM. For `COc1ccc(S(=O)(=O)N2C(=O)C(c3cc(CN4CCCC4)ccc3OC)(N3CCC[C@H]3C(=O)N(C)C)c3cc(Cl)ccc32)cc1` (stereo partly drawn) [Example 18, (S)-1-[5-Chloro-1-(4-methoxybenzenesulfonyl)-3-(2-methoxy-5-pyrrolidin-1-yl-methylphenyl)-2-oxo-2,3-dihydro-1H-indol-3-yl]pyrrolidine-2-dimethylcarboxamide, trifluoroacetic acid salt], the Ki was less than 1 nM. `COc1ccc(S(=O)(=O)N2C(=O)C(c3cc(CN4CCCCC4)ccc3OC)(N3CCC[C@H]3C(=O)N(C)C)c3cc(Cl)ccc32)cc1` (stereo partly drawn) [Example 19, (S)-1-[5-Chloro-1-(4-methoxybenzenesulfonyl)-3-(2-methoxy-5-piperidin-1-ylmethyl-phenyl)-2-oxo-2,3-dihydro-1H-indol-3-yl]pyrrolidine-2-dimethylcarboxamide, trifluoroacetic acid salt] was tested, and the Ki was less than 1 nM. Compound `COc1ccc(S(=O)(=O)N2C(=O)C(c3cc(CN4CCN(C)CC4)ccc3OC)(N3CCC[C@H]3C(=O)N(C)C)c3cc(Cl)ccc32)cc1` (stereo partly drawn) [Example 20, (S)-1-{5-Chloro-1-(4-methoxybenzenesulfonyl)-3-[2-methoxy-5-(4-methylpiperazin-1-yl-methyl)phenyl]-2-oxo-2,3-dihydro-1H-indol-3-yl}pyrrolidine-2-dimethylcarboxamide, trifluoroacetic acid salt] has a Ki of less than 1 nM. `COc1ccc(S(=O)(=O)N2C(=O)C(c3cc(CN4CCOCC4)ccc3OC)(N3CCC[C@H]3C(=O)N(C)C)c3cc(Cl)ccc32)cc1` (stereo partly drawn) [Example 21, (S)-1-[5-Chloro-1-(4-methoxybenzenesulfonyl)-3-(2-methoxy-5-morpholin-4-yl-methylphenyl)-2-oxo-2,3-dihydro-1H-indol-3-yl]pyrrolidine-2-dimethylcarboxamide, trifluoroacetic acid salt] gave a Ki of less than 1 nM. `COc1ccc(S(=O)(=O)N2C(=O)C(c3cc(CN(C)CCN(C)C)ccc3OC)(N3CCC[C@H]3C(=O)N(C)C)c3cc(Cl)ccc32)cc1` (stereo partly drawn) [Example 22, (S)-1-[5-Chloro-3-(5-{[(2-dimethylaminoethyl)methylamino]methyl}-2-methoxy-phenyl)-1-(4-methoxybenzenesulfonyl)-2-oxo-2,3-dihydro-1H-indol-3-yl]pyrrolidine-2-dimethylcarboxamide, trifluoroacetic acid salt] showed a Ki of less than 1 nM. `COc1ccc(S(=O)(=O)N2C(=O)C(c3cc(CN(C)CCCN(C)C)ccc3OC)(N3CCC[C@H]3C(=O)N(C)C)c3cc(Cl)ccc32)cc1` (stereo partly drawn) [Example 23, (S)-1-[5-Chloro-3-(5-{[(3-dimethylaminopropyl)methylamino]methyl}-2-methoxy-phenyl)-1-(4-methoxybenzenesulfonyl)-2-oxo-2,3-dihydro-1H-indol-3-yl]pyrrolidine-2-dimethylcarboxamide, trifluoroacetic acid salt] gave a Ki of less than 1 nM.
